These results are taken from PMC9369419 (International Journal of Molecular Sciences, 2022).

In one data set the target is T1, GluK1 (Rattus norvegicus, UniProt P22756).
T1 construct: made in house; host or cells: Sf9 insect cells (membranes)
As to the kind of experiment: Radioligand binding at recombinant homomeric GluK1 in Sf9 membranes. The settings on record: recombinant rat homomeric receptor, [3H]-(S)-NF608, mean ± SEM. How it is done:
(§1) Ligand binding affinities at recombinant rat homomeric GluA2, GluK1−3, and GluK5 were determined as previously detailed. […] The filters were dried at 70 °C for 1 h, and 50 μL/well Microscint 20 (PerkinElmer, Waltham, MA, USA) was added. Radioactivity was detected with a TopCounter (PerkinElmer, Waltham, MA, USA). GluA2 and GluK5 assays were filtered on GF/C type filters using Millipore 12-well filtration manifolds (Merck Life Science, Søborg, Denmark) and washed twice with ice-cold assay buffer. Filters were placed in pony vials (PerkinElmer, Waltham, MA, USA), 3 mL of Ultima Gold scintillation fluid (PerkinElmer, Waltham, MA, USA) was added, and DPM (disintegrations per minute) were determined using a TriCarb 2900 scintillation counter (PerkinElmer, Waltham, MA, USA).
(§2) All competition curves (n ≥ 3 per ligand) were determined in triplicate. Data were analyzed using GraphPad Prism 6 (GraphPad Software, San Diego, CA, USA) to determine ligand affinity (Ki) and Hill coefficient (nH) using the one-site Ki and four-parameter logistics equations, respectively.

The target in the next data set is T2, GluK2 (Rattus norvegicus, UniProt P42260).
T2 construct: made in house; host or cells: Sf9 insect cells (membranes)
Put plainly: Radioligand binding at recombinant homomeric GluK2 in Sf9 membranes. Particulars: recombinant rat homomeric receptor, [3H]-kainic acid, mean ± SEM. The method, then:
as §1, §2

In another data set the target is T3, GluK3 (Rattus norvegicus, UniProt P42264).
T3 construct: made in house; host or cells: Sf9 insect cells (membranes)
As to the kind of experiment: Radioligand binding at recombinant homomeric GluK3 in Sf9 membranes. The settings on record: recombinant rat homomeric receptor, [3H]-kainic acid, mean ± SEM. How it is done:
as §1, §2

A further data set has as its target T4, GluA2 (Rattus norvegicus, UniProt P19491).
T4 construct: made in house; host or cells: Sf9 insect cells (membranes)
As to the kind of experiment: Radioligand binding at recombinant homomeric GluA2 in Sf9 membranes. The settings on record: recombinant rat homomeric receptor, [3H]-(RS)-AMPA, mean ± SEM. The method, then:
as §1, §2

The target in another data set is T5, GluK1b(Q) (Rattus norvegicus, UniProt P22756).
T5 construct: expressed in transfected cells
As to the kind of experiment: Intracellular Ca2+ imaging assay, HEK293 cells expressing GluK1b(Q). The format is cell-based. The settings on record: 10 µM compound, Ca2+ fluorescence, read-out: inhibition of agonist-evoked responses at GluK1. The source says:
(§3) For the determination of antagonistic activity of compounds at GluK1, GluK3 and GluA2 receptors, stable HEK293 cell lines expressing rat GluK1b(Q), GluK3a, and GluA2(Q)i were created. A polyclonal stable cell line expressing GluK3a was created as described previously. For the creation of polyclonal stable cell lines expressing GluK1and GluA2 receptors, cDNA encoding blasticidin-S deaminase (blas) enzymes were inserted into the pIRES plasmid vector (Clontech, Mountain View, CA, USA) to create the plasmid vector pRES(blas). […] For functional assays, cells were plated into clear-bottomed, black 96-well fluorescence culture plates (Corning, Vordingborg, Denmark), and when >70% confluent, the cells were loaded with 2 μM Fluo 4-AM calcium sensitive dye (Abcam, Cambridge, UK) and used for the imaging of agonist-evoked changes in intracellular Ca^2+ using a FlexStation I plate reader (Molecular Devices, San Jose, CA, USA). […] Changes in dye fluorescence in response to the addition of an agonist solution were then measured at 538 nm using excitation at 485 nm and emission cut-off at 515 nm. Baseline fluorescence was measured for 16 s before the addition of 50 µL agonist solution to each well of the assay plate, and fluorescence was measured for 120 to 160 s after addition of the agonists. […] Responses were determined in at least triplicate at each compound concentration.

For another data set, the target named is T6, GluA2(Q)i (Rattus norvegicus, UniProt P19491).
T6 construct: expressed in transfected cells
Put plainly: Intracellular Ca2+ imaging assay, HEK293 cells expressing GluA2(Q)i. Type of data set: cell-based. Particulars: 10 µM compound, Ca2+ fluorescence, read-out: inhibition of agonist-evoked responses at GluA2.
From the text: as §3

In a further data set the test system is mGluR2. As to the kind of experiment: mGluR2 functional assay (Ca2+/Fluo-4, mGlu2/Gqo5-HEK293 cells). The format is cell-based. Particulars: 0.1 mM compound. The method, then:
Culture media, serum, antibiotics and buffers for cell culture were obtained from Invitrogen (Paisley, UK). The Fluo-4/AM dye was obtained from Molecular Probes (Eugene, OR, USA), and Glu was purchased from Sigma-Aldrich. The construction and basic pharmacological characterization of the stable mGlu2/Gqo5-HEK293 cell line has been described previously.
Cell culture and Ca^2+/Fluo-4 Assay. The mGlu2/Gqo5-HEK293 cells were cultured in Dulbecco’s Modified Eagle Medium-Glutamax-I supplemented with 100 U/mL penicillin, 100 µg/mL streptomycin, 5% dialyzed fetal bovine serum, 100 µg/mL zeocin and 1 mg/mL G418. The cells were split into poly-D-lysine-coated black 96-well plates with clear bottoms (6 × 10^4 cells/well). The following day, the culture medium was aspirated, and the cells were incubated in 50 µL assay buffer (Hanks Buffered Salt Solution containing 20 mM HEPES, 1 mM CaCl2, 1 mM MgCl2 and 2.5 mM probenecid, pH 7.4) supplemented with […] Fluo–4/AM at 37 °C for 1 h. […] The 96-well plate was assayed in a FLEXStation (Molecular Devices, Crawley, UK) measuring emission (in fluorescence units (FU)) at 525 nm caused by excitation at 485 nm before and up to 90 s after the addition of 33.3 µL agonist-containing assay buffer. […]

As usually defined, the Ki is the dissociation constant of the complex between target and ligand, obtained from inhibition or displacement. In general, inhibition refers to the percentage by which the read-out fell short of the control. The melting point is the temperature of the solid-liquid transition.

Each structure is given as a SMILES string. A value given as a limit tells only on which side of the number the result lay.

T1 sequence (P22756 31-949): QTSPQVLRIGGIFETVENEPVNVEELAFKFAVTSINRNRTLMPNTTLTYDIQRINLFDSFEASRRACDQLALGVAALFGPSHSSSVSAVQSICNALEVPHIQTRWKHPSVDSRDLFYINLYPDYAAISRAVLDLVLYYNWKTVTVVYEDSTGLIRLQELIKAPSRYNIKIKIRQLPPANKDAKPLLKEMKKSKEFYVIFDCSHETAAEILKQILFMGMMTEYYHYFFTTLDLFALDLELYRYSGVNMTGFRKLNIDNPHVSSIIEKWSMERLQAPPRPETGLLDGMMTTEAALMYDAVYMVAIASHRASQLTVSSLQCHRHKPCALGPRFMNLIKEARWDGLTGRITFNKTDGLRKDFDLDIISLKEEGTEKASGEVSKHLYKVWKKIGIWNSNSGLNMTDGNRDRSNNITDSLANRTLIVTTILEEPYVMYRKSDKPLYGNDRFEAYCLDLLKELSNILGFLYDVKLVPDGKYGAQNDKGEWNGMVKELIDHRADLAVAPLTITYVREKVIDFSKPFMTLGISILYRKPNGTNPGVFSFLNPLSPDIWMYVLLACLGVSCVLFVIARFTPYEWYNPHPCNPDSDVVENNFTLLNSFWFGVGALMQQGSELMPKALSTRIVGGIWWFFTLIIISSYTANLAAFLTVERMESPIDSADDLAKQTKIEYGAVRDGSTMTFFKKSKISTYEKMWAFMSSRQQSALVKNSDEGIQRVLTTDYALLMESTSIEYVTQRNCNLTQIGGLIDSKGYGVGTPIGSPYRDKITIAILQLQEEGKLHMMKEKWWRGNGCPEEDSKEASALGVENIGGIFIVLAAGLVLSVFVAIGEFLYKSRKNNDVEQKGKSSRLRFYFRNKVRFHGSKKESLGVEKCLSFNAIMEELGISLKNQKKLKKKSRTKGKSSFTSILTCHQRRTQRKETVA
T3 sequence (P42264 32-919): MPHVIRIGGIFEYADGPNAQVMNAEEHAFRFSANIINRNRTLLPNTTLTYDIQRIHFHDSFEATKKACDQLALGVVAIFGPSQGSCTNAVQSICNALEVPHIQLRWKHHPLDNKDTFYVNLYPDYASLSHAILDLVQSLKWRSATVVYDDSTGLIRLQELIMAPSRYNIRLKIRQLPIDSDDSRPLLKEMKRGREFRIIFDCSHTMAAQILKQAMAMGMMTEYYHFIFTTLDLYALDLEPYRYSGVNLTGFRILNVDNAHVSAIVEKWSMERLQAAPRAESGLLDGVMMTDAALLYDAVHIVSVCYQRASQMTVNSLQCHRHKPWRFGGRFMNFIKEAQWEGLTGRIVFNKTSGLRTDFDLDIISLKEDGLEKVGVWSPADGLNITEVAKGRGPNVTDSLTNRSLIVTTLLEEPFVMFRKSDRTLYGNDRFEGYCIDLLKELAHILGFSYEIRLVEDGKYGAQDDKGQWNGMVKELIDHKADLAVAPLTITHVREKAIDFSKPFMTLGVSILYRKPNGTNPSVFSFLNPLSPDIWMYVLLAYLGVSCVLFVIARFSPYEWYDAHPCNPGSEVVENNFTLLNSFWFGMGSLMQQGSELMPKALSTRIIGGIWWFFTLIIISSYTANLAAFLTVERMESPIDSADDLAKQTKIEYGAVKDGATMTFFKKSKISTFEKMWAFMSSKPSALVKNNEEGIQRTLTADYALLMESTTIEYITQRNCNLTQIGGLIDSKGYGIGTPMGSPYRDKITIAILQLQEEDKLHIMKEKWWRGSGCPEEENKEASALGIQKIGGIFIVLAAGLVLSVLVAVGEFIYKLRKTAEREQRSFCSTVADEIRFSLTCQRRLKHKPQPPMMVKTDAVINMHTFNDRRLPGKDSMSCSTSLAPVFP
T5 sequence (P22756 31-920 isoform P22756-4 limits assumed): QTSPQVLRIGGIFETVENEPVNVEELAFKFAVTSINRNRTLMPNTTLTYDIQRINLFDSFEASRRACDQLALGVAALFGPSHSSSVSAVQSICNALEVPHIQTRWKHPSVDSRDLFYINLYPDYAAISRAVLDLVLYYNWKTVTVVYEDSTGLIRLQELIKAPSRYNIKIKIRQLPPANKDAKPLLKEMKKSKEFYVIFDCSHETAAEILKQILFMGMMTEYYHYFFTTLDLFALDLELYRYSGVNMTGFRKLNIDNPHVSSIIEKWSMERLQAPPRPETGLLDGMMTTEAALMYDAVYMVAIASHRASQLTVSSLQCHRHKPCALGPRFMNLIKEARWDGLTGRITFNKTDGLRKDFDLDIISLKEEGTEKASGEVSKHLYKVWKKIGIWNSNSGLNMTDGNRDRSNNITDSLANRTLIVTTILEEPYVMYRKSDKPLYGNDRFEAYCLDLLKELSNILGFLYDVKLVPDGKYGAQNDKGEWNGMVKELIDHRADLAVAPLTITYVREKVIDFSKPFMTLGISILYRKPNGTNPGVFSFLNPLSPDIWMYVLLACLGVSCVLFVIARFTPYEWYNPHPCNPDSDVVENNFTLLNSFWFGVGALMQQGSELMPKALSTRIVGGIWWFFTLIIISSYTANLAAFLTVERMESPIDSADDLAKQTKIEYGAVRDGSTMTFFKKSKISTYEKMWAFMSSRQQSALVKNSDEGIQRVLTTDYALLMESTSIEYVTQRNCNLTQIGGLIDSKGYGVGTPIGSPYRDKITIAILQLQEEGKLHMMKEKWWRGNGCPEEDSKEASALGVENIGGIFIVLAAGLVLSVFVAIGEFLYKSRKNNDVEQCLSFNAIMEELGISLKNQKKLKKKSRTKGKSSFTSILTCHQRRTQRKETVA
T4 sequence (P19491 22-883): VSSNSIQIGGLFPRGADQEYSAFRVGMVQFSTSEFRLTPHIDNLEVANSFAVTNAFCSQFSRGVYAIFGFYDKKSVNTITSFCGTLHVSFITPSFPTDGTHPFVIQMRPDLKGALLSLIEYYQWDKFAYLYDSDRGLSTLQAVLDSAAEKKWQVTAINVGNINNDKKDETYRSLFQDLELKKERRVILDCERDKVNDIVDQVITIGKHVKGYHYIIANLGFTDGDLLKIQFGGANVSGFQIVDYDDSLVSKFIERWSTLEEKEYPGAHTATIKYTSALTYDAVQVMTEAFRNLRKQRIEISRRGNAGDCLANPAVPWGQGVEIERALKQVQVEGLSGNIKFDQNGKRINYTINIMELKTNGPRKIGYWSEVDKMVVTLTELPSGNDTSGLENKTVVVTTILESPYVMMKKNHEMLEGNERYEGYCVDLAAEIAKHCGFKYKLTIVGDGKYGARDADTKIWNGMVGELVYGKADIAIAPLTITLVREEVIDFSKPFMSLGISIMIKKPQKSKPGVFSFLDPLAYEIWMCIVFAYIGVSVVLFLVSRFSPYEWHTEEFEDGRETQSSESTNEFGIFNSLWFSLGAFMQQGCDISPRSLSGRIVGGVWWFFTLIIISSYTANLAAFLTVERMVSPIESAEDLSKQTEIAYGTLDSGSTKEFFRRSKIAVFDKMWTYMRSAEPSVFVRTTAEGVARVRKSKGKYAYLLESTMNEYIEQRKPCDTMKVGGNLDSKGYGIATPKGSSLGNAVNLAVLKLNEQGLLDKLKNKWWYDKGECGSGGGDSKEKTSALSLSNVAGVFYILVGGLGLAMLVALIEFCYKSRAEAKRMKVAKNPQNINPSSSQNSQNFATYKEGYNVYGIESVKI
T2 sequence (P42260 32-908): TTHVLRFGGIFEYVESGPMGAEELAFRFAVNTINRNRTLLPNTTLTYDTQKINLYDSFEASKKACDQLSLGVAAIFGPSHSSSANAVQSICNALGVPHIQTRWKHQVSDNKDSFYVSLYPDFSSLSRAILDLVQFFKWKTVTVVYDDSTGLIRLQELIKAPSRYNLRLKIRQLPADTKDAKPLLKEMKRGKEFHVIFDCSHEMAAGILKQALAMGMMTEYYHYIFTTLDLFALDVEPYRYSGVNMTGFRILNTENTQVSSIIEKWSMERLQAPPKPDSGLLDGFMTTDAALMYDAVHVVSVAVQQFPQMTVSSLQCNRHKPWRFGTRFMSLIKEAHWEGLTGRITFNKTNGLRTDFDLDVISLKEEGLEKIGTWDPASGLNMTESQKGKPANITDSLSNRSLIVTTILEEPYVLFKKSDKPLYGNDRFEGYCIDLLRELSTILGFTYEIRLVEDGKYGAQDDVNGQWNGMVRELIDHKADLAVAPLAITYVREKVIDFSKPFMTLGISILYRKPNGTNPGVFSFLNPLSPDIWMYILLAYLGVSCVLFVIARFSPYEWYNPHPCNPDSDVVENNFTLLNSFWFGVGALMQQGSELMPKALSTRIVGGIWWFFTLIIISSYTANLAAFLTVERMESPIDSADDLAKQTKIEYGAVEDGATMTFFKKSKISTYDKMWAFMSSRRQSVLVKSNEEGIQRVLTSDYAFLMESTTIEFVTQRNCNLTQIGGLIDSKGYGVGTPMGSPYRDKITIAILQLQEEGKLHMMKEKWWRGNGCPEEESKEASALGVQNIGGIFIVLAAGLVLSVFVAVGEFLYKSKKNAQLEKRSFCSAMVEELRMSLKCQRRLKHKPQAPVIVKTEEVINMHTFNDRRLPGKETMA
T6 sequence (P19491 22-883 isoform P19491-2 limits assumed): as the sequence (P19491 22-883) above, with N744T, A745P, N754S, L758V, S775A, G776K, G777D, G778S, D779G counted along it

Molecule `O=C(Nn1c(=O)c(=O)[nH]c2cc(C#Cc3cnc4cccnn34)ccc21)c1ccccc1` [Compound 28] displayed a melting point of 314 to 315 °C. Besides, on GluK1, the Ki is about 100 µM. At GluK2, the Ki is over 100 µM. In addition, at GluK3, the Ki stood at 0.25 ± 0.01 µM. Further, the Ki at GluA2 was over 100 µM. For the same molecule, on GluK1b(Q), the inhibition at 10 µM was under 5%. At GluA2(Q)i, the inhibition at 10 µM is under 5%. Further, the “agonist or antagonist activity at mGluR2” value in the data set with mGluR2 is recorded as “neither agonistic nor antagonistic”.
